Values of other authors as cited in patent US20250288650A1, “Therapeutic Regimens and Methods for Reducing Body Weight and/or Serum Lipids using a GLP-1R and GCGR Agonist” (Spitfire Pharma LLC, priority 2024, published 2025).

What was measured:
[1] = over 26 weeks of administration
[2] = 6 weeks

For `CCCCCCCCCCCCCCCC(=O)N[C@@H](CCC(=O)NCCCC[C@H](NC(=O)[C@H](CC(=O)O)NC(=O)[C@H](CO)NC(=O)[C@@H](NC(=O)[C@H](Cc1ccccc1)NC(=O)[C@@H](NC(=O)CNC(=O)[C@H](CCC(N)=O)NC(=O)[C@H](CO)NC(=O)[C@@H](N)Cc1c[nH]cn1)[C@@H](C)O)[C@@H](C)O)C(=O)N[C@@H](CO)C(=O)N[C@@H](CCC(=O)O)C(=O)N[C@@H](Cc1ccc(O)cc1)C(=O)N[C@@H](CC(C)C)C(=O)N[C@@H](CC(=O)O)C(=O)N[C@@H](CO)C(=O)N[C@@H](CCC(=O)O)C(=O)N[C@@H](CCCNC(=N)N)C(=O)N[C@@H](C)C(=O)N[C@@H](CCCNC(=N)N)C(=O)N[C@@H](CC(=O)O)C(=O)N[C@@H](Cc1ccccc1)C(=O)N[C@H](C(=O)N[C@@H](C)C(=O)N[C@@H](Cc1c[nH]c2ccccc12)C(=O)N[C@@H](CC(C)C)C(=O)N[C@@H](CCC(=O)O)C(=O)N[C@@H](C)C(=O)NCC(=O)NCC(=O)O)C(C)C)C(=O)O` [cotadutide], which “degree of weight loss” value [1] is on record?
Its value is 5.4%.

And the “reduction in liver fat content” value [2]?
Its value is 39%.
